Measurements taken from patent publication US12421280B2, “Insulin like growth factor binding protein bioactive peptide fragments” (Northwestern University, priority 2019, dated 2025).
Several values for one entry are separate records, joined by “and”; a condition that tells them apart may be missing. Equal entries are not always repeated.

What was measured:
Type in all cases: in vivo, rat
male SD rats = test: Porsolt forced swim test; conditions: 1 hr post-dosing; for antidepressant-like effect in the Porsolt test as measured by floating time, compared with ketamine: 1 μg/kg i.v., FIG. 1A; for antidepressant-like effect in the Porsolt test (floating time), compared with IGFBP2: dose not specified, FIG. 2 legend; for antidepressant-like effect in the Porsolt test as measured by floating time, compared with IGFBP2: FIG. 2
Description: Adult male (2-3 month old) Sprague-Dawley (SD) rats were purchased from Harlan (USA) for the Porsolt Forced Swim Test. Rats were housed in Lucite cages with aspen wood chip bedding, maintained on a 12:12 light:dark cycle (lights on at 5 AM), and given ad libitum access to Purina lab chow (USA) and tap water throughout the study. All experiments were approved by the Sai Life Sciences (India) Animal Care and Use Committees.
Porsolt forced swim testing was conducted as described in (Burgdorf et al., Neuropsychopharmacology, (2013), 38(5):729-742). Rats were dosed with IGFBP1-7 (1 microgram/kg i.v.; peprotech, USA) (3 mg/kg, i.v.), ketamine ([…] i.v.; Sigma, USA) or 0.9% sterile saline vehicle (1 ml/kg, i.v.). Injections were made in the lateral tail vein and rats were tested 1 hr post-dosing. Animals were placed in a 46 cm tall×20 cm in diameter clear glass tube filled to 30 cm with tap water (23±1° C.) for 15 min on the first day (habituation) and 5 min on the subsequent test day. Water was changed after every other animal. Animals were videotaped, and tapes were scored offline by a blind experimenter with high inter-rater reliability (Pearson's r>0.9). Floating time (sec) was defined as the minimal amount of effort required to keep the animal's head above and diving (number of incidences) was registered when the whole body of the animal was submersed and the animal's head was facing towards the bottom of the tank.
Based on the results of the Porsolt test in Example 1, IGFBP2, IGFBP3, and IGFBP5 were identified as the best binding proteins for inducing robust antidepressant-like effects without side effects. Given the structural similarities between all 7 IGFBPs, an amino acid sequence homology was performed to identify sequences that were homologues between IGFBP2, IGFBP3, and IGFBP5 and were not consistently shared with IGFBP1, IGFBP6 and IGFBP7. Based on this analysis, three peptides were identified (KHGLYNLKQCKMSLNGQ (SEQ ID NO: 1); PKKLRP (SEQ ID NO: 2); RGD). These peptides were synthesized using standard solid phase peptide chemistry and were assessed in the Porsolt Test as described above.

rats [1] = test: Positive emotional learning: hedonic 50-kHz ultrasonic vocalizations during heterospecific play, with center crosses in the same assay; conditions: 0.01, 0.1, 1, 10, and 30 mg/kg vs. vehicle, P<0.05
Description: (§1) These experiments were conducted as described in Burgdorf et al. (Int. J. Neuropsychopharmacol., 2017, 20:476-484).

rats [2] = test: Contextual fear extinction (model of PTSD); conditions: 1 mg/kg IV one hour before the first extinction session
Description: as §1

[3] = Table 1 raw data, one value per rat, ketamine 10 mg/kg i.v., 5 min test session

CNC1(c2ccccc2Cl)CCCCC1=O (stereo not drawn) [ket, ketamine, reference compound]
diving (number of incidences) (male SD rats; [3]): 0 (6×) and 1 | floating (floating time) (male SD rats; [3]): 30.5 s and 55 s and 79.5 s and 31.2 s and 59.3 s and 78.1 s and 39.6 s

RGD
floating (floating time) (male SD rats; Table 2 raw data, one value per rat, dose 9 (unit not given)): 115.4 s and 132.9 s and 113.1 s and 125.8 s and 108.2 s and 140.6 s and 139.7 s and 127.8 s | floating (floating time) (male SD rats; Table 2 raw data, one value per rat, dose 90 (unit not given)): 137 s and 169 s and 132.7 s and 133.6 s and 81.6 s and 143.4 s and 149.6 s and 123.7 s

IGFBP3: insulin-like growth factor binding protein 3 (peprotech, USA)
antidepressant-like effect in the Porsolt test as measured by floating time, compared with ketamine (male SD rats; ketamine 10 mg/kg i.v.): equivalent antidepressant-like effect as ketamine | floating (floating time) (male SD rats; Table 1 raw data, one value per rat, IGFBP 1 μg/kg i.v., 5 min test session, listed as BP3): 29.3 s and 35.8 s and 42.8 s and 23.3 s and 84.9 s and 140.5 s and 142.3 s

KHGLYNLKQCKMSLNGQ [made by solid phase peptide chemistry]
antidepressant-like effect in the Porsolt test (floating time), compared with IGFBP2 (male SD rats): equivalent antidepressant-like effect as IGFBP2 | floating (floating time) (male SD rats; Table 2 raw data, one value per rat, dose 54 (low dose, unit not given), listed as KH . . .): 29.2 s and 26.5 s and 25.2 s and 24.2 s and 43.3 s and 33.4 s and 53.8 s and 27.4 s | floating (floating time) (male SD rats; Table 2 raw data, one value per rat, dose 540 (high dose, unit not given), listed as KH . . .): 108.7 s and 94.8 s and 121.4 s and 149.1 s and 101.5 s and 105.8 s and 130 s and 147.9 s | antidepressant-like effect in the Porsolt test as measured by floating time, compared with IGFBP2 (male SD rats; low dose): equivalent or superior antidepressant-like effect

IGFBP7: insulin-like growth factor binding protein 7 (peprotech, USA)
antidepressant-like effect in the Porsolt test as measured by floating time, compared with ketamine (male SD rats; ketamine 10 mg/kg i.v.): equivalent antidepressant-like effect | floating (floating time) (male SD rats; Table 1 raw data, one value per rat, IGFBP 1 μg/kg i.v., 5 min test session, listed as BP7): 24.5 s and 123.8 s and 52.5 s and 94.4 s and 9.8 s and 30.8 s and 60.1 s

PKKLRP [made by solid phase peptide chemistry]
antidepressant-like effect in the Porsolt test (floating time), compared with IGFBP2 (male SD rats): equivalent antidepressant-like effect as IGFBP2 | floating (floating time) (male SD rats; Table 2 raw data, one value per rat, dose 20 (low dose, unit not given), listed as PK . . .): 16.6 s and 6.6 s and 10.2 s and 26.2 s and 18.2 s and 15.5 s and 22.4 s and 7.6 s | floating (floating time) (male SD rats; Table 2 raw data, one value per rat, dose 200 (high dose, unit not given), listed as PK . . .): 17.3 s and 4.3 s and 47.8 s and 9 s and 18.4 s and 45.6 s and 2.3 s and 7.7 s | antidepressant-like effect in the Porsolt test as measured by floating time, compared with IGFBP2 (male SD rats; high dose): equivalent or superior antidepressant-like effect | antidepressant-like effect in the Porsolt test as measured by floating time, compared with IGFBP2 (male SD rats; low dose): equivalent or superior antidepressant-like effect | center crosses (index of an anxiolytic drug effect) (rats [1]; FIG. 3B): increased | positive emotional learning (rates of hedonic ultrasonic vocalizations during heterospecific play) (rats [1]; 1 hr post dosing, FIG. 3A): increased positive emotional learning | spontaneous recovery (difference in freezing 14 days post dosing versus extinction session 6) (rats [2]; FIG. 3D): increased | contextual fear extinction across each test day (rats [2]; sessions 1-6 drug vs. vehicle, P<0.05, FIG. 3C): increased contextual fear extinction

IGFBP5: insulin-like growth factor binding protein 5 (peprotech, USA)
antidepressant-like effect in the Porsolt test as measured by floating time, compared with ketamine (male SD rats; ketamine 10 mg/kg i.v.): equivalent antidepressant-like effect as ketamine | floating (floating time) (male SD rats; Table 1 raw data, one value per rat, IGFBP 1 μg/kg i.v., 5 min test session, listed as BP5): 14.4 sec and 104.6 sec and 55 sec and 8.4 sec and 27.7 sec (2×) and 25.7 sec

B1: IGFBP6: insulin-like growth factor binding protein 6 (peprotech, USA) (protein, UniProt P24592 28-240, looked up)
Insulin-like growth …: RCPGCGQGVQAGCPGGCVEEEDGGSPAEGCAEAEGCLRREGQECGVYTPNCAPGLQCHPPKDDEAPLRALLLGRGRCLPARAPAVAEENPKESKPQAGTARPQDVNRRDQQRNPGTSTTPSQPNSAGVQDTEMGPCRRHLDSVLQQLQTEVYRGAQTLYVPNCDHRGFYRKRQCRSSQGQRRGPCWCVDRMGKSLPGSPDGNGSSSCPTGSSG
antidepressant-like effect in the Porsolt test as measured by floating time, compared with ketamine (male SD rats; ketamine 10 mg/kg i.v.): equivalent antidepressant-like effect | floating (floating time) (male SD rats; Table 1 raw data, one value per rat, IGFBP 1 μg/kg i.v., 5 min test session, listed as BP6): 25.6 s and 36.6 s and 10.9 s and 45 s and 27.2 s and 35.5 s and 36.3 s

B2: IGFBP4: insulin-like growth factor binding protein 4 (peprotech, USA) (protein, UniProt P22692 22-258, looked up)
Insulin-like growth …: DEAIHCPPCSEEKLARCRPPVGCEELVREPGCGCCATCALGLGMPCGVYTPRCGSGLRCYPPRGVEKPLHTLMHGQGVCMELAEIEAIQESLQPSDKDEGDHPNNSFSPCSAHDRRCLQKHFAKIRDRSTSGGKMKVNGAPREDARPVPQGSCQSELHRALERLAASQSRTHEDLYIIPIPNCDRNGNFHPKQCHPALDGQRGKCWCVDRKTGVKLPGGLEPKGELDCHQLADSFRE
floating (floating time) (male SD rats; Table 1 raw data, one value per rat, IGFBP 1 μg/kg i.v., 5 min test session, listed as BP4): 32.4 s and 137.2 s and 175.7 s and 189.5 s and 59 s and 64.7 s and 172.9 s

B3: IGFBP1: insulin-like growth factor binding protein 1 (peprotech, USA) (protein, UniProt P08833 26-259, looked up)
Insulin-like growth …: APWQCAPCSAEKLALCPPVSASCSEVTRSAGCGCCPMCALPLGAACGVATARCARGLSCRALPGEQQPLHALTRGQGACVQESDASAPHAAEAGSPESPESTEITEEELLDNFHLMAPSEEDHSILWDAISTYDGSKALHVTNIKKWKEPCRIELYRVVESLAKAQETSGEEISKFYLPNCNKNGFYHSRQCETSMDGEAGLCWCVYPWNGKRIPGSPEIRGDPNCQIYFNVQN
floating (floating time) (male SD rats; Table 1 raw data, one value per rat, IGFBP 1 μg/kg i.v., 5 min test session, listed as BP1): 156.8 s and 143.4 s and 67.5 s and 179.1 s and 130.7 s and 96.8 s and 187.9 s

B4: IGFBP2: insulin-like growth factor binding protein 2 (peprotech, USA); positive control in Example 2 (protein, UniProt P18065 36-325, looked up)
Insulin-like growth …: AEVLFRCPPCTPERLAACGPPPVAPPAAVAAVAGGARMPCAELVREPGCGCCSVCARLEGEACGVYTPRCGQGLRCYPHPGSELPLQALVMGEGTCEKRRDAEYGASPEQVADNGDDHSEGGLVENHVDSTMNMLGGGGSAGRKPLKSGMKELAVFREKVTEQHRQMGKGGKHHLGLEEPKKLRPPPARTPCQQELDQVLERISTMRLPDERGPLEHLYSLHIPNCDKHGLYNLKQCKMSLNGQRGECWCVNPNTGKLIQGAPTIRGDPECHLFYNEQQEARGVHTQRMQ
antidepressant-like effect in the Porsolt test as measured by floating time, compared with ketamine (male SD rats; ketamine 10 mg/kg i.v.): equivalent antidepressant-like effect as ketamine | floating (floating time) (male SD rats; Table 1 raw data, one value per rat, IGFBP 1 μg/kg i.v., 5 min test session, listed as BP2): 59.8 s and 45.5 s and 41.6 s and 43.5 s and 25.7 s and 68.2 s and 83.6 s | floating (floating time) (male SD rats; Table 2 raw data, one value per rat, positive control IGFBP2, dose not given, listed as BP2): 37.2 s and 67.1 s and 22 s and 35.6 s and 28.2 s and 65.8 s and 44.3 s and 79.1 s
